33 compounds from US20250302775A1, “METHODS FOR THE TREATMENT OF DEPRESSION” (Autobahn Therapeutics, Inc., priority 2022, published 2025) can be followed below.

pIC50: −log10 of the molar value.

One data set addresses T1, recombinant human FAAH (Homo sapiens, UniProt O00519).
T1 sequence (O00519 1-579): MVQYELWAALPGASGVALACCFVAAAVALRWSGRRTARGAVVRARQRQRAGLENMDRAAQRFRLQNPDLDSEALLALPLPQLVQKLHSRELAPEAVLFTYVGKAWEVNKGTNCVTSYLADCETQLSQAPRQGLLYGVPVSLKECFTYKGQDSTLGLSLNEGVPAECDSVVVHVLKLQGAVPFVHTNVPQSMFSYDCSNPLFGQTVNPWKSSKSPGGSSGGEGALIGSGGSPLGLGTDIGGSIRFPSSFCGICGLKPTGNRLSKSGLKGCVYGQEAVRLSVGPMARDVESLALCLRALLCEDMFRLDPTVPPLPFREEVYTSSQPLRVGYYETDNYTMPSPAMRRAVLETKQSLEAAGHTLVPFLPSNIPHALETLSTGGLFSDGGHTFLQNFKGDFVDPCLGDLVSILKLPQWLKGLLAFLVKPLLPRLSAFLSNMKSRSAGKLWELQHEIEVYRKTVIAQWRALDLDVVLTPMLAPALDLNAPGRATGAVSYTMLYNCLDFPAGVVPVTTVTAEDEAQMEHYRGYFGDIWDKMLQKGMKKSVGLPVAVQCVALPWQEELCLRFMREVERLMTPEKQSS
The data set can be described thus: FAAH inhibition, apparent IC50 with AMC substrate. The data set is classed as biochemical. As to conditions: 30 min preincubation with recombinant human FAAH and AMC; read-out: Apparent IC50s.
With `NC(=O)c1cccc(-c2cc(OC(=O)NC3CCCCC3)ccc2O)c1` [URB937], the pIC50 was 7.16.

As to `O=C(Nc1cccnn1)N1CCC(=Cc2cccc(Oc3ccc(C(F)(F)F)cn3)c2)CC1` [PF-04457845], the pIC50 was 8.52.

Another data set addresses T2, FAAH (Mus musculus, UniProt O08914).
T2 construct: from tissue; host or cells: living mice (plasma, liver, brain)
T2 sequence (O08914 1-579): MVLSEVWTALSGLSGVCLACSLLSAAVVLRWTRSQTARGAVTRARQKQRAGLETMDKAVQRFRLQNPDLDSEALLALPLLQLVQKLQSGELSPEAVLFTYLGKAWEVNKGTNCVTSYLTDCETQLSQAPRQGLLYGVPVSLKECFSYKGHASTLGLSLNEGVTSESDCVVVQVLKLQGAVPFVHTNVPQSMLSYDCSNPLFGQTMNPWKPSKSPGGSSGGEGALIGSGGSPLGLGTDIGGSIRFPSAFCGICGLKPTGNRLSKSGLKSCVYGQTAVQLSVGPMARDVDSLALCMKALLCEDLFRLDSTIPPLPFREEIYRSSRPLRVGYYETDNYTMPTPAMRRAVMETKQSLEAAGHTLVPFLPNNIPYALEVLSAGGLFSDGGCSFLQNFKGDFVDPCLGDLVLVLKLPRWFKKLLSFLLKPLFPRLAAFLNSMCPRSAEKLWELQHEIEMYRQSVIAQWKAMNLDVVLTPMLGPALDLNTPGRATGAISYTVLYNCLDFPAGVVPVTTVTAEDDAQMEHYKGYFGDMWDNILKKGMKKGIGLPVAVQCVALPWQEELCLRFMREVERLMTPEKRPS
The data set can be described thus: tissue distribution in mice after co-dosing ABX-002 with or without PFI or GFI. The data set is classed as in vivo. As to conditions: after prodrug (ABX-002) co-dosing, mice. Here is the method: The ability of globally-penetrant and peripherally-restricted FAAH inhibitors (GFI & PFI, respectively) to alter distribution of ABX-002 and ABX-002A was assessed.
Table 5 depicts the inhibition of active metabolite (LL-650177 or PF-044578454) in AUC in the plasma, liver, and brain after prodrug (ABX-002) co-dosing. Tissue distribution studies in mice confirm global & peripheral inhibition of FAAH.
As for `O=C(Nc1cccnn1)N1CCC(=Cc2cccc(Oc3ccc(C(F)(F)F)cn3)c2)CC1` [PF-04457845], the “inhibition of active metabolite AUC, Brain” value came to 83%; the “inhibition of active metabolite AUC, Liver” value is 94%; the “inhibition of active metabolite AUC, Plasma” value is given as 94%.

Still in this data set, the particulars now being: co-dosing with PFI or GFI, mice.
With `CNC(=O)COc1cc(Cl)c(Cc2ccc(O)c(C(C)C)c2)c(Cl)c1` [Compound 1], the “prodrug levels in plasma, liver and brain with FAAH inhibition” value is “did not change or slightly increased”.

The same data set, now with this note: peripheral or global FAAH inhibitor.
Consider `NC(=O)c1cccc(-c2cc(OC(=O)NC3CCCCC3)ccc2O)c1` [URB937], for which the Distribution entry was “Peripheral”.

With `O=C(Nc1cccnn1)N1CCC(=Cc2cccc(Oc3ccc(C(F)(F)F)cn3)c2)CC1` [PF-04457845], the Distribution entry was “Global”.

The target of another data set is T3, recombinant human FAAH (rhFAAH) (Homo sapiens, UniProt O00519).
T3 construct: purchased Cayman Chemical (Ann Arbor, MI, USA)
T3 sequence (O00519 1-579): T1 sequence (O00519 1-579)
The data set can be described thus: FAAH substrate evaluation: formation of acid metabolite. Type of data set: biochemical. As to conditions: 0.5 ng/μL rhFAAH, 1 μM test compound, room temperature, pH 8.0, 0-60 minutes. As for the experimental part: Purified recombinant human FAAH (rhFAAH) was purchased from Cayman Chemical (Ann Arbor, MI, USA). The total volume for each incubation was 400 μL containing a final 0.5 ng/μL rhFAAH, 1 μM test compound, 1.25% ethanol or 1 μM PF-3845 (FAAH inhibitor), and 0.1% bovine serum albumin in Tris-EDTA buffer at pH 8.0). The positive control was LL-341001. The incubation was conducted at the room temperature. At 0, 5, 15, 30 and 60 minutes, an aliquot of 30 μL reaction mixtures was removed and mixed with 300 μL acetonitrile containing 5 ng/mL terfenadine and 10 ng/mL tolbutamide as internal standards to quench the reaction. The resulting mixture was centrifuged at 4000 rpm, 4° C. for 15 minutes, and 100 μL supernatant was ready for LC-MS/MS analysis to measure the formation of acid metabolite.
Acquity Ultra Performance LC system from Waters was used for sample analysis. The chromatography was performed on a reverse phase Kinetex 2.6 μm C18 column, 2.1×30 mm, 100 Å. The mobile phase A comprised of 0.1% formic acid in water and mobile phase B comprised of 0.1% formic acid in acetonitrile with a 2-min run time at the flow rate of 0.8 mL/min for the acid metabolite from positive control or a 1.5 min run time at the flow rate of 0.9 mL/min for the acid metabolite of test compounds. The mass spectrometer (API-5500 and API Q Trap 4000 Applied Biosystems/MDS SCIEX Instruments, Framingham, MA, USA) was operated under ESI positive or negative ion MRM mode.
The formation of acid metabolite was monitored and quantified using one calibration point of 1 μM. The observed rate constant (ke) for the acid metabolite formation was calculated by plotting the metabolite concentration versus time of incubation with the slope being ke and is shown in Table 1.
`CC(C)c1cc(Cc2c(Cl)cc(OCC(=O)NCCS(=O)O)cc2Cl)ccc1O` [Compound 13]: the “ke (observed rate constant for the acid metabolite formation)” value (from here on “ke”) is “B (B = ke is less than 0.1 and more than 0)”.

On to `C=CCNC(=O)COc1cc(Cl)c(Cc2ccc(O)c(C(C)C)c2)c(Cl)c1` [Compound 4], for which the “ke” value is recorded as “A (A = ke is more than or equal to 0.1)”.

As for `CC(C)c1cc(Cc2c(Cl)cc(OCC(=O)N(C)C)cc2Cl)ccc1O` [Compound 19], the “ke” value is “B (B = ke is less than 0.1 and more than 0)”.

For `CC(C)c1c(O)ccc(Cc2c(Cl)cc(OCC(=O)NN(C)C)cc2Cl)c1F` [Compound 45], the “ke” value is on record as “A (A = ke is more than or equal to 0.1)”.

Turning to `CC(C)c1cc(Cc2c(Cl)cc(OCC(=O)Nc3cccnc3)cc2Cl)ccc1O` [Compound 114], the “ke” value is “A (A = ke is more than or equal to 0.1)”.

As for `CNC(=O)COc1cc(Cl)c(Cc2ccc(O)c(C(C)C)c2F)c(Cl)c1F` [Compound 39], the “ke” value is “B (B = ke is less than 0.1 and more than 0)”.

Regarding `CNC(=O)COc1cc(Cl)c(Cc2ccc(O)c(C(C)C)c2)c(Cl)c1` [Compound 1], the “ke” value is “A (A = ke is more than or equal to 0.1)”.

In the case of `CC(C)c1cc(Cc2c(Cl)cc(OCC(=O)N3CCC3)cc2Cl)ccc1O` [Compound 118], the “ke” value was “B (B = ke is less than 0.1 and more than 0)”.

With `CC(C)c1cc(Cc2c(Cl)cc(OCC(=O)NCc3ccccc3)cc2Cl)ccc1O` [Compound 22], the “ke” value is “A (A = ke is more than or equal to 0.1)”.

Turning to `CC(C)c1cc(Cc2c(Cl)cc(OCC(=O)Nc3cccnn3)cc2Cl)ccc1O` [Compound 104], the “ke” value is reported as “A (A = ke is more than or equal to 0.1)”.

Turning to `CC(C)c1cc(Cc2c(Cl)cc(OCC(=O)Nc3ccnnc3)cc2Cl)ccc1O` [Compound 116], the “ke” value was “A (A = ke is more than or equal to 0.1)”.

In the case of `CC(C)c1cc(Cc2c(Cl)cc(OCC(=O)N(C)N(C)C)cc2Cl)ccc1O` [Compound 108], the “ke” value was “B (B = ke is less than 0.1 and more than 0)”.

For `CC(C)c1cc(Cc2c(Cl)cc(OCC(=O)NC[C@@H](C)O)cc2Cl)ccc1O` [Compound 7], the “ke” value is “B (B = ke is less than 0.1 and more than 0)”.

For the compound `CC(C)CNC(=O)COc1cc(Cl)c(Cc2ccc(O)c(C(C)C)c2)c(Cl)c1` [Compound 121], the “ke” value is recorded as “C (C = ke is 0)”.

`CC(C)c1cc(Cc2c(Cl)cc(OCC(=O)N3CCOCC3)cc2Cl)ccc1O` [Compound 133]: the “ke” value is on record as “A (A = ke is more than or equal to 0.1)”.

Turning to `CC(C)c1cc(Cc2c(Cl)cc(OCC(=O)NCC#N)cc2Cl)ccc1O` [Compound 29], the “ke” value is given as “A (A = ke is more than or equal to 0.1)”.

Consider `CC(C)c1cc(Cc2c(Cl)cc(OCC(=O)N(C)C)c(F)c2Cl)ccc1O` [Compound 38], for which the “ke” value is “B (B = ke is less than 0.1 and more than 0)”.

With `CC#CCNC(=O)COc1cc(Cl)c(Cc2ccc(O)c(C(C)C)c2)c(Cl)c1` [Compound 106], the “ke” value is “B (B = ke is less than 0.1 and more than 0)”.

In the case of `CC(C)c1cc(Cc2c(Cl)cc(OCC(=O)N[C@H](C)CO)cc2Cl)ccc1O` [Compound 9], the “ke” value is given as “A (A = ke is more than or equal to 0.1)”.

Regarding `CC(C)c1cc(Cc2c(Cl)cc(OCC(=O)N[C@@H]3C[C@@H]3F)cc2Cl)ccc1O` [Compound 111], the “ke” value was “A (A = ke is more than or equal to 0.1)”.

Regarding `CC(C)c1c(O)ccc(Cc2c(Cl)cc(OCC(=O)N(C)C)cc2Cl)c1F` [Compound 32], the “ke” value was “A (A = ke is more than or equal to 0.1)”.

In the case of `CCN(C)C(=O)COc1cc(Cl)c(Cc2ccc(O)c(C(C)C)c2)c(Cl)c1` [Compound 130], the “ke” value was “B (B = ke is less than 0.1 and more than 0)”.

Turning to `CC(C)c1cc(Cc2c(Cl)cc(OCC(=O)Nc3ccccc3O)cc2Cl)ccc1O` [Compound 20], the “ke” value is “A (A = ke is more than or equal to 0.1)”.

Regarding `CNN(C)C(=O)COc1cc(Cl)c(Cc2ccc(O)c(C(C)C)c2)c(Cl)c1` [Compound 124], the “ke” value is “B (B = ke is less than 0.1 and more than 0)”.

As to `CC(C)c1cc(Cc2c(Cl)cc(OCC(=O)N(C)CC(F)(F)F)cc2Cl)ccc1O` [Compound 131], the “ke” value is “B (B = ke is less than 0.1 and more than 0)”.

Turning to `CC(C)c1cc(Cc2c(Cl)cc(OCC(=O)N(C)C(C)C)cc2Cl)ccc1O` [Compound 122], the “ke” value is “B (B = ke is less than 0.1 and more than 0)”.

Regarding `CC(C)c1cc(Cc2c(Cl)cc(OCC(=O)NCCc3ccccc3)cc2Cl)ccc1O` [Compound 23], the “ke” value was “B (B = ke is less than 0.1 and more than 0)”.

With `CC(C)c1cc(Cc2c(Cl)cc(OCC(=O)N(C)CC(F)F)cc2Cl)ccc1O` [Compound 132], the “ke” value was “B (B = ke is less than 0.1 and more than 0)”.

Consider `COc1ccc(NC(=O)COc2cc(Cl)c(Cc3ccc(O)c(C(C)C)c3)c(Cl)c2)nn1` [Compound 113], for which the “ke” value was “A (A = ke is more than or equal to 0.1)”.

With `CC(C)c1cc(Cc2c(Cl)cc(OCC(=O)NCCCF)cc2Cl)ccc1O` [Compound 112], the “ke” value was “A (A = ke is more than or equal to 0.1)”.

In the case of `CC(C)c1c(O)ccc(Cc2c(Cl)cc(OCC(=O)NCCF)cc2Cl)c1F` [Compound 36], the “ke” value is “A (A = ke is more than or equal to 0.1)”.
